# Results: ChEMBL document CHEMBL4483862, “Open-source discovery of chemical leads for next-generation chemoprotective antimalarials” (2018)
# System: Plasmodium berghei
# Test: Luciferase/luciferin-expressing antifolate-resistant parasites were used to infect a culture of HepG2 cells that were pre-incubated with compounds. Infected hepatocytes emit light due to the luciferase reaction. Assay results are presented as the percent inhibition of light emission compared to control. […]
# Format: functional
# Details: sporozoite; for IC90: read-out: LUCIFERASE INFECTION ASSAY - IC90
Structure (SMILES),IC90 [µM],other results
CC(Oc1ccc(Cl)cc1)C(=O)Nc1sccc1C(N)=O (stereo not given),4.27,"IC50 (PBLUC_HILL_SLOPE 15.8, PBLUC_R_SQUARED 0.448, read-out: LUCIFERASE INFECTION ASSAY - IC50): 3.72 µM"
COc1cc2c(cc1OC)CN(c1nc(CN3CCOCC3)nc3sc4c(c13)CCC(C)C4)CC2 (stereo not given),3.91,"IC50 (PBLUC_HILL_SLOPE 15.9, PBLUC_R_SQUARED 0.656, read-out: LUCIFERASE INFECTION ASSAY - IC50): 3.41 µM"
CCOc1cccc(/C=C/c2ccc3cccc(O)c3n2)c1O,10.6,"IC50 (PBLUC_HILL_SLOPE 16.2, PBLUC_R_SQUARED 0.451, read-out: LUCIFERASE INFECTION ASSAY - IC50): 9.23 µM"
c1ccn2c(Sc3ncnc4sccc34)nnc2c1,9.31,"IC50 (PBLUC_HILL_SLOPE 16.1, PBLUC_R_SQUARED 0.0872, read-out: LUCIFERASE INFECTION ASSAY - IC50): 8.13 µM"
OCc1ccc(-c2cnc3cnc(-c4cccs4)cn23)cc1,10.6,"IC50 (PBLUC_HILL_SLOPE 16.2, PBLUC_R_SQUARED 0.35, read-out: LUCIFERASE INFECTION ASSAY - IC50): 9.27 µM"
N#Cc1c(N2CCCC2)nn(C(=O)Nc2ccc(Cl)c(Cl)c2)c1N,3.89,"IC50 (PBLUC_HILL_SLOPE 16.1, PBLUC_R_SQUARED 0.491, read-out: LUCIFERASE INFECTION ASSAY - IC50): 3.39 µM"
Cc1sc2nc(-c3cccnc3)nc(N3CCN(C(=O)C4COc5ccccc5O4)CC3)c2c1C (stereo not given),> 10,"IC50 (PBLUC_HILL_SLOPE 15.9, PBLUC_R_SQUARED 0.0253, read-out: LUCIFERASE INFECTION ASSAY - IC50): 9.35 µM"
O=C1c2ccccc2C(=Cc2ccsc2)c2ccccc21,> 10,"IC50 (PBLUC_HILL_SLOPE 16.4, 0.310, PBLUC_R_SQUARED 0.161, 0.532, read-out: LUCIFERASE INFECTION ASSAY - IC50): 4.9 µM"
OC(c1ccc(F)c(Cl)c1)c1nnc(Nc2cc(C(F)(F)F)ccc2F)s1 (stereo not given),> 10,"IC50 (PBLUC_HILL_SLOPE 15.9, PBLUC_R_SQUARED 0.206, read-out: LUCIFERASE INFECTION ASSAY - IC50): 9.29 µM"
CC1(C)CC(Nc2ncnc3sc(-c4ccccc4)cc23)CC(C)(C)N1,> 10,"IC50 (PBLUC_HILL_SLOPE 16.4, PBLUC_R_SQUARED 0.0474, read-out: LUCIFERASE INFECTION ASSAY - IC50): 8.84 µM"
CS(=O)(=O)Nc1cccc(-c2cn3c(-c4ccc(CO)cc4)cnc3cn2)c1,8.14,"IC50 (PBLUC_HILL_SLOPE 16.4, PBLUC_R_SQUARED 0.351, read-out: LUCIFERASE INFECTION ASSAY - IC50): 7.12 µM"
OCc1ccc(-c2cnc3cnc(-c4cccc(Cl)c4)cn23)cc1,> 9.83,"IC50 (PBLUC_HILL_SLOPE 16, PBLUC_R_SQUARED 0.272, read-out: LUCIFERASE INFECTION ASSAY - IC50): 9.56 µM"
COc1ccc(-c2cnc3sc(NCCc4ccc(S(N)(=O)=O)cc4)nn23)cc1OC,6.81,"IC50 (PBLUC_HILL_SLOPE 16.2, PBLUC_R_SQUARED 0.321, read-out: LUCIFERASE INFECTION ASSAY - IC50): 5.94 µM"
COc1ccc(-c2ccc3ncc(-c4ccoc4)n3n2)cc1OC,> 10,"IC50 (PBLUC_HILL_SLOPE 16.2, PBLUC_R_SQUARED 0.0483, read-out: LUCIFERASE INFECTION ASSAY - IC50): > 10 µM"
CC(c1nc(N)nc(N(C)C)n1)N1CCN(C(c2ccc(F)cc2)c2ccc(F)cc2)CC1 (stereo not given),3.79,"IC50 (PBLUC_HILL_SLOPE 16.2, PBLUC_R_SQUARED 0.638, read-out: LUCIFERASE INFECTION ASSAY - IC50): 3.31 µM"
Cc1onc(-c2ccc(Cl)cc2Cl)c1-c1csc(Nc2c(Cl)cccc2Cl)n1,> 7,"IC50 (PBLUC_HILL_SLOPE 16.2, PBLUC_R_SQUARED 0.0753, read-out: LUCIFERASE INFECTION ASSAY - IC50): 6.45 µM"
O=c1cc(CN2CCN(C(c3ccc(F)cc3)c3ccc(F)cc3)CC2)nc2ccc(Cl)cn12,9.88,"IC50 (PBLUC_HILL_SLOPE 16, PBLUC_R_SQUARED 0.275, read-out: LUCIFERASE INFECTION ASSAY - IC50): 8.61 µM"
O=C(CN1C(=O)CSc2ccc(C(F)(F)F)cc21)Nc1ccc(Cl)cc1,3.03,"IC50 (PBLUC_HILL_SLOPE 15.8, PBLUC_R_SQUARED 0.354, read-out: LUCIFERASE INFECTION ASSAY - IC50): 2.64 µM"
Cc1noc(C)c1C(=O)NNC(=O)c1ccc(Cl)cc1,> 11.2,"IC50 (PBLUC_HILL_SLOPE 16.2, PBLUC_R_SQUARED 0.359, read-out: LUCIFERASE INFECTION ASSAY - IC50): 11 µM"
COc1ccc(COC(=O)c2sc3nc4n(c(=O)c3c2C)CCC4)cc1F,> 10,"IC50 (PBLUC_HILL_SLOPE 15.9, PBLUC_R_SQUARED 0.0512, read-out: LUCIFERASE INFECTION ASSAY - IC50): 9.36 µM"

Structure (SMILES),IC90 [µM],other results
O=C(NNc1cccc(Cl)c1)c1c[nH]c(=S)n1-c1ccccc1,> 10,"IC50 (PBLUC_HILL_SLOPE 16, PBLUC_R_SQUARED 0.438, read-out: LUCIFERASE INFECTION ASSAY - IC50): 9.92 µM"
O=S(=O)(c1c(Cl)cc(Br)cc1Cl)N1CCN(C(=S)NC2CC3CCC2C3)CC1 (stereo not given),> 10,"IC50 (PBLUC_HILL_SLOPE 16.2, PBLUC_R_SQUARED 0.114, read-out: LUCIFERASE INFECTION ASSAY - IC50): 8.93 µM"
CCOc1cc(/C=C2\CSc3c(F)cccc3C2=O)cc(Cl)c1O,> 10,"IC50 (PBLUC_HILL_SLOPE 15.8, PBLUC_R_SQUARED 0.377, read-out: LUCIFERASE INFECTION ASSAY - IC50): 9.68 µM"
CC(C)(C)NC(=O)CNC(=O)c1cc(-c2ccccc2)nc2c1cnn2Cc1ccccc1,> 10,"IC50 (PBLUC_HILL_SLOPE 16.4, PBLUC_R_SQUARED 0.327, read-out: LUCIFERASE INFECTION ASSAY - IC50): 9.02 µM"
COc1ccc(-c2nccc3n[nH]c(-c4cccc(C(F)(F)F)c4)c23)cc1OC,> 10,"IC50 (PBLUC_HILL_SLOPE 15.9, PBLUC_R_SQUARED 0.0621, read-out: LUCIFERASE INFECTION ASSAY - IC50): 9.75 µM"
Cc1cc(=O)n2nc(C)c(-c3ccc(F)cc3)c2[nH]1,> 12.8,"IC50 (PBLUC_HILL_SLOPE 15.8, PBLUC_R_SQUARED 0.105, read-out: LUCIFERASE INFECTION ASSAY - IC50): > 12.8 µM"
Cc1c(Cl)cccc1-n1c(SCC(=O)N(CCC#N)c2ccccc2)nc2ccccc2c1=O,> 10,"IC50 (PBLUC_HILL_SLOPE 15.9, PBLUC_R_SQUARED 0.269, read-out: LUCIFERASE INFECTION ASSAY - IC50): 9.73 µM"
CCOC(=O)c1cc(C#N)c(N2CCN(C(=O)Nc3cccc(C(F)(F)F)c3)CC2)nc1C(F)(F)F,> 6.4,"IC50 (PBLUC_HILL_SLOPE 16, PBLUC_R_SQUARED 0.406, read-out: LUCIFERASE INFECTION ASSAY - IC50): 6.3 µM"
O=C(Nc1ccc(Nc2ccccc2)cc1)c1[nH]nc2ccccc12,> 10,"IC50 (PBLUC_HILL_SLOPE 16, PBLUC_R_SQUARED 0.594, read-out: LUCIFERASE INFECTION ASSAY - IC50): 8.92 µM"
c1ccc(OCCN2CCN(c3ccc(-c4nc5ccccc5[nH]4)cn3)CC2)cc1,> 10,"IC50 (PBLUC_HILL_SLOPE 16.1, PBLUC_R_SQUARED 0.136, read-out: LUCIFERASE INFECTION ASSAY - IC50): 9.41 µM"
CNc1snc(C)c1C(=O)Nc1ccc(OC)c(Cc2ccccc2)c1,1.1,"IC50 (PBLUC_HILL_SLOPE 16.3, PBLUC_R_SQUARED 0.619, read-out: LUCIFERASE INFECTION ASSAY - IC50): 0.961 µM"
c1ccc(-c2nc(NCCCN3CCOCC3)c3cc(-c4ccccc4)sc3n2)cc1,> 10,"IC50 (PBLUC_HILL_SLOPE 16.1, PBLUC_R_SQUARED 0.337, read-out: LUCIFERASE INFECTION ASSAY - IC50): 9.75 µM"
OC(COc1ccc(Cl)c(Cl)c1)CN1CCC(Nc2nccc(C(F)(F)F)n2)CC1 (stereo not given),> 7.09,"IC50 (PBLUC_HILL_SLOPE 16.2, PBLUC_R_SQUARED 0.0623, read-out: LUCIFERASE INFECTION ASSAY - IC50): 6.96 µM"
CCOC(=O)c1sc(N(Cc2ccccc2)C(=O)CCc2cc(OC)c(OC)c(OC)c2)nc1C,4.11,"IC50 (PBLUC_HILL_SLOPE 16, PBLUC_R_SQUARED 0.382, read-out: LUCIFERASE INFECTION ASSAY - IC50): 3.58 µM"
CN(C)S(=O)(=O)c1ccc(Cn2cc(C(=O)NCc3cccc(C(F)(F)F)c3)sc2=O)cc1,> 6.61,"IC50 (PBLUC_HILL_SLOPE 16, PBLUC_R_SQUARED 0.195, read-out: LUCIFERASE INFECTION ASSAY - IC50): 6.47 µM"
O=C(Nc1cccc(Cl)c1)Nc1ccc2nc(-c3ccncc3)nn2c1,3.69,"IC50 (PBLUC_HILL_SLOPE 15.9, PBLUC_R_SQUARED 0.357, read-out: LUCIFERASE INFECTION ASSAY - IC50): 3.21 µM"
COc1ccccc1/C=C(/C(=O)OCc1cn2ccccc2c1C#N)c1ccccc1,> 10,"IC50 (PBLUC_HILL_SLOPE 16.4, PBLUC_R_SQUARED 0.216, read-out: LUCIFERASE INFECTION ASSAY - IC50): 9.92 µM"
COC(=O)c1c(NC(C)=O)c2cc(NCC3CC=CCC3)cnc2n1CCc1c[nH]c2ccccc12 (stereo not given),> 6.8,"IC50 (PBLUC_HILL_SLOPE 16.1, PBLUC_R_SQUARED 0.211, read-out: LUCIFERASE INFECTION ASSAY - IC50): 6.66 µM"
Clc1cccc(-c2nnc3ccc(-c4ccc(N5CCOCC5)cc4)cn23)c1,> 10,"IC50 (PBLUC_HILL_SLOPE 15.8, PBLUC_R_SQUARED 0.114, read-out: LUCIFERASE INFECTION ASSAY - IC50): 9.72 µM"
CNC(=O)c1ccc(CN(Cc2csc(-c3ccsc3)n2)Cc2ccco2)cc1,3.26,"IC50 (PBLUC_HILL_SLOPE 16.0, 14.5, PBLUC_R_SQUARED 0.463, 0.641, read-out: LUCIFERASE INFECTION ASSAY - IC50): 2.83 µM"
